Results on 40 molecules are retold here after patent US8846947B2, “Benzimidazoles and related analogs as sirtuin modulators” (GlaxoSmithKline LLC, priority 2008, dated 2014).

The assay deals with T1, SIRT1 (Homo sapiens, UniProt Q96EB6).
T1 sequence (Q96EB6 1-747): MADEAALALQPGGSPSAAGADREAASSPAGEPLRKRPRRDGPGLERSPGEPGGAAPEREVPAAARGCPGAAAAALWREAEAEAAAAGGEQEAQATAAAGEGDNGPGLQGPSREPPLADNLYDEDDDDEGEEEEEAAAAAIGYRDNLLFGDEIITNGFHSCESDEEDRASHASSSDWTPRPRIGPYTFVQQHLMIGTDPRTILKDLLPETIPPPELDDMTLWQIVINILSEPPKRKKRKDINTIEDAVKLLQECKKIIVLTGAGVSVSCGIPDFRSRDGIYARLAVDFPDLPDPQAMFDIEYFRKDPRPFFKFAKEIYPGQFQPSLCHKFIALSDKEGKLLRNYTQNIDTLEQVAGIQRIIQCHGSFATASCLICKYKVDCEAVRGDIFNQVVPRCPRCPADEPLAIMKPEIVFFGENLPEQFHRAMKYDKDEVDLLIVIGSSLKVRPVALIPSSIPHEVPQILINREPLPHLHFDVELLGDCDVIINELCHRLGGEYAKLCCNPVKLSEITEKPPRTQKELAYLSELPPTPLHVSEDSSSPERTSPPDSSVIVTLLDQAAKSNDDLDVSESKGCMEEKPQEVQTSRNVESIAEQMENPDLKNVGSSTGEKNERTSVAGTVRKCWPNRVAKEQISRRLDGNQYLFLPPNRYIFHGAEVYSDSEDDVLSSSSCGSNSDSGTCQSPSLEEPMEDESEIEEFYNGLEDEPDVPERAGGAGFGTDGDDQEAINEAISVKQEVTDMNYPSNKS
In words: Mass spectrometry based SIRT1 deacetylase activation assay (acetylated p53-derived peptide substrate). The class given is biochemical.
With `Cc1cc(NC(=O)c2cccc3[nH]c(-c4cccc(C(F)(F)F)c4)nc23)n(C)n1` [Compound 278], the EC1.5 entry is “B (EC1.5 1-25 uM)” and the “Fold Act. (percent maximum fold activation)” value was “A (Fold activation >200%)”.
On the same counts, the results for `Cc1cc(C)nc(NC(=O)c2cccc3[nH]c(-c4cccc(C(F)(F)F)c4)nc23)c1` [Compound 279] are “A (EC1.5<1.0 uM)” and “A (Fold activation >200%)”.
On the same counts, the results for `O=C(Nc1nccs1)c1cccc2[nH]c(-c3ccccc3N3CCCC3)nc12` [Compound 280] are “B (EC1.5 1-25 uM)” and “A (Fold activation >200%)”.
For the molecule `Cc1cc(-c2nc3c(C(=O)Nc4nccs4)cccc3[nH]2)n(C)n1` [Compound 281], the EC1.5 result is recorded as “A (EC1.5<1.0 uM)” and the “Fold Act. (percent maximum fold activation)” value is given as “A (Fold activation >200%)”.
`O=C(Nc1nccs1)c1cccc2[nH]c(-c3cccnc3N3CCNCC3)nc12` [Compound 282]: the EC1.5 result is reported as “B (EC1.5 1-25 uM)” and the “Fold Act. (percent maximum fold activation)” value is “A (Fold activation >200%)”.
Regarding `O=C(Nc1nc(-c2ccccc2)cs1)c1cccc2[nH]c(-c3cccc(C(F)(F)F)c3)nc12` [Compound 283], the EC1.5 entry was “B (EC1.5 1-25 uM)” and the “Fold Act. (percent maximum fold activation)” value was “A (Fold activation >200%)”.
Consider `O=C(Nc1nc2ccccc2s1)c1cccc2[nH]c(-c3cccc(C(F)(F)F)c3)nc12` [Compound 284], for which the EC1.5 entry is “B (EC1.5 1-25 uM)” and the “Fold Act. (percent maximum fold activation)” value is reported as “A (Fold activation >200%)”.
As for `O=C(Nc1ccc(Cl)cn1)c1cccc2[nH]c(-c3cccc(C(F)(F)F)c3)nc12` [Compound 285], the EC1.5 entry is “B (EC1.5 1-25 uM)” and the “Fold Act. (percent maximum fold activation)” value was “A (Fold activation >200%)”.
On to `O=C(Nc1cccnc1Cl)c1cccc2[nH]c(-c3cccc(C(F)(F)F)c3)nc12` [Compound 286], for which the EC1.5 result is recorded as “B (EC1.5 1-25 uM)” and the “Fold Act. (percent maximum fold activation)” value is “A (Fold activation >200%)”.
`O=C(Nc1ccncc1)c1cccc2[nH]c(-c3cccc(N4CCOCC4)c3)nc12` [Compound 287]: the EC1.5 result is reported as “A (EC1.5<1.0 uM)” and the “Fold Act. (percent maximum fold activation)” value is on record as “A (Fold activation >200%)”.
As for `O=C(Nc1cccnc1)c1cccc2[nH]c(-c3cccc(N4CCOCC4)c3)nc12` [Compound 288], the EC1.5 result is “A (EC1.5<1.0 uM)” and the “Fold Act. (percent maximum fold activation)” value is recorded as “A (Fold activation >200%)”.
As for `O=C(Nc1ccccn1)c1cccc2[nH]c(-c3cccc(N4CCOCC4)c3)nc12` [Compound 289], the EC1.5 entry is listed as “A (EC1.5<1.0 uM)” and the “Fold Act. (percent maximum fold activation)” value is recorded as “A (Fold activation >200%)”.
As to `O=C(Nc1nccs1)c1cccc2[nH]c(-c3ccc(Cl)cc3C(F)(F)F)nc12` [Compound 290], the EC1.5 entry is listed as “A (EC1.5<1.0 uM)” and the “Fold Act. (percent maximum fold activation)” value is “A (Fold activation >200%)”.
On the same counts, the results for `Cc1nn(-c2ccccc2)c(C)c1-c1nc2c(C(=O)Nc3nccs3)cccc2[nH]1` [Compound 291] are “A (EC1.5<1.0 uM)” and “A (Fold activation >200%)”.
On to `Cc1csc(-c2nc3c(C(=O)Nc4nccs4)cccc3[nH]2)n1` [Compound 292], for which the EC1.5 result is on record as “A (EC1.5<1.0 uM)” and the “Fold Act. (percent maximum fold activation)” value is “A (Fold activation >200%)”.
In the case of `Cc1ncsc1-c1nc2c(C(=O)Nc3nccs3)cccc2[nH]1` [Compound 293], the EC1.5 entry is reported as “B (EC1.5 1-25 uM)” and the “Fold Act. (percent maximum fold activation)” value is “A (Fold activation >200%)”.
The corresponding values for `O=C(Nc1nccs1)c1cccc2[nH]c(-c3ccncc3Cl)nc12` [Compound 294] are “B (EC1.5 1-25 uM)” and “A (Fold activation >200%)”.
As to `Cn1nc(C(F)(F)F)c(-c2nc3c(C(=O)Nc4nccs4)cccc3[nH]2)c1Cl` [Compound 295], the EC1.5 result is reported as “A (EC1.5<1.0 uM)” and the “Fold Act. (percent maximum fold activation)” value was “A (Fold activation >200%)”.
Regarding `O=C(Nc1nccs1)c1cccc2[nH]c(-c3ncccc3C(F)(F)F)nc12` [Compound 296], the EC1.5 entry was “B (EC1.5 1-25 uM)” and the “Fold Act. (percent maximum fold activation)” value is “A (Fold activation >200%)”.
For the molecule `O=C(Nc1cnccn1)c1cccc2[nH]c(-c3cccc(N4CCOCC4)c3)nc12` [Compound 297], the EC1.5 result was “A (EC1.5<1.0 uM)” and the “Fold Act. (percent maximum fold activation)” value is “A (Fold activation >200%)”.
Regarding `O=C(NC1CCNCC1)c1cccc2[nH]c(-c3cccc(C(F)(F)F)c3)nc12` [Compound 298], the EC1.5 entry is on record as “B (EC1.5 1-25 uM)” and the “Fold Act. (percent maximum fold activation)” value is listed as “A (Fold activation >200%)”.
For the molecule `Cc1cc(NC(=O)c2cccc3[nH]c(-c4cccc(C(F)(F)F)c4)nc23)no1` [Compound 299], the EC1.5 entry is on record as “B (EC1.5 1-25 uM)” and the “Fold Act. (percent maximum fold activation)” value is on record as “A (Fold activation >200%)”.
Turning to `O=C(Nc1cccnn1)c1cccc2[nH]c(-c3cccc(C(F)(F)F)c3)nc12` [Compound 300], the EC1.5 result was “A (EC1.5<1.0 uM)” and the “Fold Act. (percent maximum fold activation)” value was “A (Fold activation >200%)”.
In the case of `O=C(N[C@H]1CCNC1)c1cccc2[nH]c(-c3cccc(C(F)(F)F)c3)nc12` [Compound 301], the EC1.5 result was “C (EC1.5 >25 uM)” and the “Fold Act. (percent maximum fold activation)” value was “B (Fold Activation <200%)”.
The corresponding values for `O=C(Nc1nccs1)c1cccc2[nH]c(-c3cc(F)ccc3C(F)(F)F)nc12` [Compound 302] are “A (EC1.5<1.0 uM)” and “A (Fold activation >200%)”.
For the molecule `Cn1ccc(-c2nc3c(C(=O)Nc4nccs4)cccc3[nH]2)n1` [Compound 303], the EC1.5 entry is on record as “B (EC1.5 1-25 uM)” and the “Fold Act. (percent maximum fold activation)” value was “A (Fold activation >200%)”.
As to `Cc1nc(C)c(-c2nc3c(C(=O)Nc4nccs4)cccc3[nH]2)s1` [Compound 304], the EC1.5 result is recorded as “A (EC1.5<1.0 uM)” and the “Fold Act. (percent maximum fold activation)” value is given as “A (Fold activation >200%)”.
On the same counts, the results for `O=C(Nc1nccs1)c1cccc2[nH]c(-c3ccccc3OC(F)(F)F)nc12` [Compound 305] are “A (EC1.5<1.0 uM)” and “A (Fold activation >200%)”.
Consider `Cc1cc(NC(=O)c2cccc3[nH]c(-c4cccc(C(F)(F)F)c4)nc23)sn1` [Compound 306], for which the EC1.5 entry is given as “B (EC1.5 1-25 uM)” and the “Fold Act. (percent maximum fold activation)” value is “B (Fold Activation <200%)”.
On to `O=C(Nc1ccc(Cl)nc1)c1cccc2[nH]c(-c3cccc(C(F)(F)F)c3)nc12` [Compound 307], for which the EC1.5 result was “B (EC1.5 1-25 uM)” and the “Fold Act. (percent maximum fold activation)” value was “B (Fold Activation <200%)”.
The corresponding values for `CCOC(=O)c1csc(NC(=O)c2cccc3[nH]c(-c4cccc(C(F)(F)F)c4)nc23)n1` [Compound 308] are “B (EC1.5 1-25 uM)” and “A (Fold activation >200%)”.
On to `O=C(Nc1ccc(Cl)nn1)c1cccc2[nH]c(-c3cccc(C(F)(F)F)c3)nc12` [Compound 309], for which the EC1.5 result is “C (EC1.5 >25 uM)” and the “Fold Act. (percent maximum fold activation)” value was “B (Fold Activation <200%)”.
For the molecule `O=C(Nc1ccncc1)c1cccc2[nH]c(-c3ccnn3-c3ccccc3)nc12` [Compound 310], the EC1.5 entry is “A (EC1.5<1.0 uM)” and the “Fold Act. (percent maximum fold activation)” value is given as “A (Fold activation >200%)”.
On the same counts, the results for `O=C(Nc1cccnc1)c1cccc2[nH]c(-c3ccnn3-c3ccccc3)nc12` [Compound 311] are “B (EC1.5 1-25 uM)” and “A (Fold activation >200%)”.
On to `O=C(Nc1cccnc1)c1cccc2[nH]c(-c3ccc(Cl)cc3C(F)(F)F)nc12` [Compound 312], for which the EC1.5 entry was “A (EC1.5<1.0 uM)” and the “Fold Act. (percent maximum fold activation)” value is given as “A (Fold activation >200%)”.
Turning to `O=C(Nc1ccccn1)c1cccc2[nH]c(-c3ccc(Cl)cc3C(F)(F)F)nc12` [Compound 313], the EC1.5 result is “A (EC1.5<1.0 uM)” and the “Fold Act. (percent maximum fold activation)” value was “A (Fold activation >200%)”.
On to `O=C(Nc1nccs1)c1cccc2[nH]c(-c3ccnc(N4CCNCC4)c3)nc12` [Compound 314], for which the EC1.5 result is reported as “B (EC1.5 1-25 uM)” and the “Fold Act. (percent maximum fold activation)” value was “A (Fold activation >200%)”.
Take `O=C(Nc1ccncc1)c1cccc2[nH]c(-c3ccc(Cl)cc3C(F)(F)F)nc12` [Compound 315]: the EC1.5 entry is reported as “A (EC1.5<1.0 uM)” and the “Fold Act. (percent maximum fold activation)” value is on record as “A (Fold activation >200%)”.
Regarding `O=C(Nc1ccncc1)c1cccc2[nH]c(-c3cc(F)ccc3C(F)(F)F)nc12` [Compound 316], the EC1.5 result is listed as “A (EC1.5<1.0 uM)” and the “Fold Act. (percent maximum fold activation)” value is recorded as “A (Fold activation >200%)”.
As for `O=C(Nc1cccnc1)c1cccc2[nH]c(-c3cc(F)ccc3C(F)(F)F)nc12` [Compound 317], the EC1.5 entry is “A (EC1.5<1.0 uM)” and the “Fold Act. (percent maximum fold activation)” value is “A (Fold activation >200%)”.
